Assay results published in patent publication US20120225123A1, “Use of Synergistic Combinations of an Avermectin and an Antineoplastic Compounds for the Treatment of Hematological Malignancies” (UNIVERSITY HEALTH NETWORK, priority 2009, published 2012).
Peptide text beside a SMILES is read from it. * marks the point of attachment. Cbz = O=C(OCc1ccccc1)*; CH2F = FC*

Key:
OCI-AML2 cells [1] = test: Cell death, viability and cell cycle in OCI-AML2 cells; format: cell-based, human; conditions: for effect of calcium chelation on IVM-induced cell death: chelation of intra and extracellular calcium
Experimental: Cell growth and viability was assessed by the MTS assay (Promega, Madison, Wis.) according to the manufacturer's instructions and as previously described.^12 Cell death was measured by Annexin V-fluoroscein isothiocyanate (FITC) and Propidium Iodide (PI; Biovision Research Products, Mountain View, Calif.) staining and flow cytometry according to the manufacturer's instructions and as previously described.^13 To identify CD34+ cells, a normal PBSC sample was co-stained with PE-anti-CD34+ (Beckman Coulter, Marseille France), and APC-anti-CD45 (Becton Dickenson, San Jose Calif.).
Cell cycle analysis was performed as described previously.^15 Briefly, cells were harvested, washed with cold PBS, and resuspended in 80% cold ethanol. Cells were then treated with 100 ng/mL DNase-free RNase A (Invitrogen) at 37° C. for 30 min, washed with cold PBS, and resuspended in PBS with 50 μg/mL propidium iodide. DNA content was analyzed by flow cytometry (FACSCalibur; Becton Dickinson). The percentage of cells in each phase of the cell cycle was calculated with FlowJo version 8.8 (TreeStar, Ashland, Oreg.).

[2] = test system: STAT1 and target genes IFIT3, OAS1 and TRIM22 in OCI-AML2 cells; test: Gene expression by Q-RT-PCR, OCI-AML2; format: cell-based, human; conditions: pre-treatment with NAC
Experimental: Leukemia cells were treated with buffer control or ivermectin (3 μM) for 30 and 40 hours. After treatment, cells were harvested, total RNA was isolated. Total RNA (10 μg) was used for cRNA amplification using the Invitrogen SuperScript kit (Life Technologies, Inc., Burlington, ON, Canada). Amplification and biotin labeling of antisense cRNA was performed using the Enzo® BioArray™ High Yield™ RNA transcript labeling kit (Enzo Diagnostics, Farmingdale, N.Y., USA), according to the manufacturer's instructions. RNA was then hybridized to Affymetrix HG U133 Plus 2.0 gene expression oligonucleotide arrays (Affymetrix, Santa Clara, Calif., USA). Microarray slides were scanned using the GeneArray 2500 scanner (Agilent Technologies). Microarray data were analyzed using GeneSpring GX v10.0 (Agilent), and lists of genes deregulated>2-fold after 30 and 40 hr ivermectin treatment were derived. Pathways and gene ontology analyses were carried out using Ingenuity Pathways Analysis (www.ingenuity.com); and the Database for Annotation, Visualization and Integrated Discovery (DAVID; http://david.abcc.ncifcrf.gov). […]
Gene expression changes were evaluated in OCI AML2, 0937, HL60, DU145 and PPC-1 cells by real-time Q-RT-PCRas described previously^15, 47. The expression level of STAT1A, STAT1B, TRIM22, OAS1 and IFIT3 before and after incubation of leukemia cells with ivermectin was evaluated.

leukemia cells = test: Combination of IVM with albendazole, combination index; format: cell-based
OCI-AML2 cells [3] = test: Reactive oxygen species, Carboxy-H2DCFDA staining, OCI-AML2; format: cell-based, human; conditions: increasing concentrations, flow cytometry
Experimental: Data were analyzed with FlowJo version 8.8 (TreeStar, Ashland, Oreg.).

Structure (SMILES): CC(=O)OCOC(=O)CN(CC(=O)OCOC(C)=O)c1ccccc1OCCOc1ccccc1N(CC(=O)OCOC(C)=O)CC(=O)OCOC(C)=O [BAPTA-AM]
- effect of calcium chelation on IVM-induced cell death (OCI-AML2 cells [1]): did not inhibit IVM-induced cell death

Structure (SMILES): O=C(O)CN(CCN(CC(=O)O)CC(=O)O)CC(=O)O [EDTA]
- effect of calcium chelation on IVM-induced cell death (OCI-AML2 cells [1]): did not inhibit IVM-induced cell death

Structure (SMILES): CC(=O)N[C@@H](CS)C(=O)O [NAC, N-acetyl-L-Cysteine]
- effect of free radical scavenger on IVM-induced cell death (OCI-AML2 cells [1]; treated with IVM along with NAC): abrogated IVM-induced cell death
- effect of NAC pre-treatment on ivermectin upregulation of STAT1 genes [2]: blocked their upregulation

Structure (SMILES): CCCSc1ccc2nc(NC(=O)OC)[nH]c2c1 [albendazole]
- CI value at the ED25 (leukemia cells): 1.59
- CI value at the ED75 (leukemia cells): 0.89
- drug interaction with IVM (leukemia cells): antagonized the anti-leukemic effects of IVM

Structure (SMILES): Nc1ccn([C@@H]2O[C@H](CO)[C@@H](O)[C@@H]2O)c(=O)n1 [cytarabine]
- ROS production (OCI-AML2 cells [3]): increase ROS production

Structure (SMILES): COc1cccc2c1C(=O)c1c(O)c3c(c(O)c1C2=O)C[C@@](O)(C(C)=O)C[C@@H]3O[C@H]1C[C@H](N)[C@H](O)[C@H](C)O1 [daunorubicin]
- ROS production (OCI-AML2 cells [3]): increase ROS production

Structure (SMILES): COC(=O)C[C@H](NC(=O)[C@H](C)NC(=O)[C@@H](NC(=O)OCc1ccccc1)C(C)C)C(=O)CF [z-VAD-fmk] (Cbz-Val-Ala-Asp(OMe)-CH2F)
- effect of pan-caspase inhibitor co-treatment on ivermectin-induced cell death (OCI-AML2 cells [1]; co-treatment with ivermectin, 24 hours, Annexin V-PI): abrogated cell death
